# Data reported in PubChem BioAssay (NCI).
#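 48-hour exposure; five concentrations; linearly interpolated endpoints. Abbreviation: GI50, concentration required for 50% inhibition of growth. TGI is the concentration that stops growth completely.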
# Tests used:
# Assay in all cases: DTP human tumour cell line panel, 48 h
# [1] = test system: NCI-H23 lung
# [2] = test system: NCI-H460 lung
# [3] = test system: NCI-H522 lung
# [4] = test system: NCI/ADR-RES ovarian
# [5] = test system: OVCAR-3 ovarian
# [6] = test system: OVCAR-4 ovarian
# [7] = test system: OVCAR-5 ovarian
# [8] = test system: OVCAR-8 ovarian
# [9] = test system: PC-3 prostate
# [10] = test system: RPMI-8226 leukemia
# [11] = test system: RXF 393 renal
# [12] = test system: SF-268 CNS
# [13] = test system: SF-295 CNS
# [14] = test system: SF-539 CNS
# [15] = test system: SK-MEL-2 melanoma
# [16] = test system: SK-MEL-28 melanoma
# [17] = test system: SK-MEL-5 melanoma
# [18] = test system: SK-OV-3 ovarian
# [19] = test system: SN12C renal
# [20] = test system: SNB-19 CNS
# [21] = test system: SNB-75 CNS
# [22] = test system: SR leukemia
# [23] = test system: SW-620 colon
# [24] = test system: T-47D breast
# [25] = test system: TK-10 renal
# [26] = test system: U251 CNS
# [27] = test system: UACC-257 melanoma
# [28] = test system: UACC-62 melanoma
# [29] = test system: UO-31 renal
smiles,measurement,setting,value
FC(F)(F)CNc1nccc(-c2cnn3ncccc23)n1,GI50,[1],9.54 µM
same,TGI,[1],> 25 µM
same,GI50,[2],10.2 µM
same,TGI,[2],> 25 µM
same,GI50,[3],9.91 µM
same,TGI,[3],> 25 µM
same,GI50,[4],13.6 µM
same,TGI,[4],> 25 µM
same,GI50,[5],10.5 µM
same,TGI,[5],> 25 µM
same,GI50,[6],> 25 µM
same,TGI,[6],> 25 µM
same,GI50,[7],9.68 µM
same,TGI,[7],> 25 µM
same,GI50,[8],8.58 µM
same,TGI,[8],> 25 µM
same,GI50,[9],24.5 µM
same,TGI,[9],> 25 µM
same,GI50,[10],> 17.5 µM
same,TGI,[10],> 25 µM
same,GI50,[11],4.86 µM
same,TGI,[11],12.4 µM
same,GI50,[12],8.24 µM
same,TGI,[12],> 25 µM
same,GI50,[13],11.9 µM
same,TGI,[13],> 25 µM
same,GI50,[14],7.76 µM
same,TGI,[14],> 25 µM
same,GI50,[15],8.72 µM
same,TGI,[15],> 25 µM
same,GI50,[16],8.13 µM
same,TGI,[16],> 25 µM
same,GI50,[17],10.5 µM
same,TGI,[17],> 25 µM
same,GI50,[18],> 25 µM
same,TGI,[18],> 25 µM
same,GI50,[19],14.5 µM
same,TGI,[19],> 25 µM
same,GI50,[20],12.7 µM
same,TGI,[20],> 25 µM
same,GI50,[21],11.3 µM
same,TGI,[21],> 25 µM
same,GI50,[22],6.88 µM
same,TGI,[22],> 25 µM
same,GI50,[23],10.9 µM
same,TGI,[23],> 25 µM
same,GI50,[24],8.93 µM
same,TGI,[24],> 25 µM
same,GI50,[25],10.3 µM
same,TGI,[25],> 25 µM
same,GI50,[26],9.82 µM
same,TGI,[26],> 25 µM
same,GI50,[27],> 19.2 µM
same,TGI,[27],> 25 µM
same,GI50,[28],10.9 µM
same,TGI,[28],> 25 µM
same,GI50,[29],15.3 µM
same,TGI,[29],> 25 µM
